Data from patent US20250002866A1, “CELL CULTURE PLATFORMS, METHODS AND USES THEREOF” (ACADEMIA SINICA, priority 2021, published 2025).

How the values were obtained:
[1] = test system: CTC spheroid derived from blood samples of patient A; assay: Ex vivo drug assay on CTC spheroids of patient A; format: cell-based, human; conditions: for diameter and morphology of CTC spheroid: after treatment for 3 days, versus untreated mock group
Experimental: FIGS. 3A-F show the in vitro drug test results of CTC-derived spheroids and clinical-pathological results of the clinical patient. (A) The drug cytotoxicity assay results on the patient-derived CTC-originated spheroid of patient A. Six chemotherapeutic drugs were tested in this assay include oxaliplatin, docetaxel, doxorubicin, irinotecan, mitomycin-C, and 5-FU. (B and D) The image of the morphology of CTC-derived spheroids after drug panel treatment at day 3. Scale bar=20 μm. (C and E) The normalized viability of CTC-derived spheroids with indicated drug panel after 3 days of treatment. (F) The contrast-enhanced CT images before and after cisplatin/gemcitabine treatment of patient B.
In order to validate the ex vivo drug assay results, we tested single or combination therapeutic agents in CTC cultures derived from blood samples of patients. […] A designed ex vivo drug assay with both used and potential candidate drug panel including oxaliplatin, docetaxel, 5-FU, doxorubicin, mitomycin-c, and irinotecan was accomplished with time-dependent and dose-dependent manner (FIG. 3A). With regard to the cell morphology, the diameter of CTC spheroid derived from blood samples of patient A was about 30˜40 μm with an intact spheroid morphology in untreated mock group. […] The results highly match with the clinical treatment outcomes in the treatment resistance on the clinical used drugs. Therefore, doxorubicin was the related promising candidate drug among the un-used drugs (mitomycin-c and irinotecan) for next line treatment (FIG. 3B). Additional ex vivo drug test was also performed on patient B with urothelium cancer.
Spheroid formation on the culture platform of the invention. Collect the cell sample that would be used for cultivation on the culture platform of the invention in suspension medium. Add cell suspension medium into each well. The cells could be cultured under 37° C. incubator with humidified 5% CO2 atmosphere. Exchange half of the culture medium once or twice per week. The cultured spheroids (tumoroids) enables sustain in the culture platform of the invention for more than two weeks depends on the cell density and demand of the spheroid size.

[2] = test system: cancer of patient A; assay: Clinical treatment outcome of patient A; format: in vivo, human; conditions: previous clinical treatment

Q: How did the “diameter and morphology of CTC spheroid” value [1] turn out when `O=c1[nH]cc(F)c(=O)[nH]1` [5-FU, fluorouracil] was run?
A: smaller than the mock group and became leakage in appearance

Q: What about the clinical treatment outcome [2] of the same compound?
A: progression disease

Q: How did the clinical treatment outcome [2] turn out when `CC(=O)O[C@@]12CO[C@@H]1C[C@H](O)[C@@]1(C)C(=O)[C@H](O)C3=C(C)[C@@H](OC(=O)[C@H](O)[C@@H](NC(=O)OC(C)(C)C)c4ccccc4)C[C@@](O)([C@@H](OC(=O)c4ccccc4)[C@H]21)C3(C)C` [docetaxel] was run?
A: progression disease

Q: How did the spheroid viability ([1]; CTC spheroids of patient A under drug treatment) turn out when `COc1cccc2c1C(=O)c1c(O)c3c(c(O)c1C2=O)C[C@@](O)(C(=O)CO)C[C@@H]3O[C@H]1C[C@H](N)[C@H](O)[C@H](C)O1` [doxorubicin] was run?
A: lower than 4%

Q: What about the “diameter and morphology of CTC spheroid” value [1] of the same compound?
A: obvious broken morphology

Q: Which results are given for `O=C1[O][Pt]2([NH][C@@H]3CCCC[C@H]3[NH]2)[O]C1=O` [oxaliplatin]?
A: diameter and morphology of CTC spheroid [1]: smaller than the mock group and became leakage in appearance; clinical treatment outcome [2]: progression disease
